{
  "source": "patent US20250082717A1",
  "about": "“COMPOSITIONS FOR TREATING KIDNEY DISEASE” (RHYTHM PHARMACEUTICALS, INC., priority 2018, published 2025)",
  "key": {"[1]": {"test_system": "BBS10^−/− mice on high-fat/high-glucose diet", "assay": "Escalating setmelanotide dosing study over 10 days, plasma leptin by ELISA", "assay_type": "in vivo", "details": "obese BBS10^−/− mice on HF/HG diet; escalating doses 0.05-1.25 mg/kg over 10 days; disproportionate from body weight loss", "description": "(§1) In order to assess the effect of setmelanotide on plasma leptin levels disproportionate from body weight loss, BBS10^−/− and wild type mice were fed a high fat/high glucose diet from weaning and body weight assessed on a weekly basis. At four months of age, mice were transferred to metabolic cages and acclimated for 3 days. An escalating setmelanotide dosing study over 10-days was conducted in accordance with regimen shown below in Table 1:\n(§2) At the completion of the study, mice were sacrificed and blood and kidney collected for analysis of circulating leptin concentration and IL-23 mRNA expression, respectively. Plasma leptin concentrations were determined using a leptin ELISA kit (Catalog: #: EZML-82K, Millipore, Billerica, Massachusetts, USA). For analysis of renal IL-23 expression messenger RNA was extracted from tissue samples using TRIzol® reagent (#15596-018, Life Technologies, USA). […] The real-time quantitative PCR reaction was performed in a C1000™ thermocycler (CFX96, Real-Time System, BioRad, USA) using SYBR® Green. […] Results were analyzed with the CFX Manager™ software (BioRad, USA). Gene expression quantification was assessed by reporting measured levels relative to Gapdh expression in each separate sample."}, "[2]": {"details": "clinical trials (Chen et al. J. Clin. Endocrinol. Metab. 2015); cited from earlier work"}, "[3]": {"test_system": "BBS10^−/− mice on high-fat/high-glucose diet", "assay": "Escalating setmelanotide dosing study over 10 days, renal IL-23 mRNA expression by real-time quantitative PCR", "assay_type": "in vivo", "details": "obese BBS10^−/− mice on HF/HG diet; escalating doses 0.05-1.25 mg/kg over 10 days; relative to Gapdh", "description": "as §1, §2"}, "[4]": {"test_system": "BBS10^−/− mice", "assay": "Setmelanotide daily for one week, body weight and plasma and urine biomarker levels", "assay_type": "in vivo", "description": "In order to assess the effect of setmelanotide on body weight and the levels of certain biomarkers, BBS10^−/− mice were administered setmelanotide (1.25 mg/kg) daily for one week. […] However, setmelanotide treatment did result in an increase in urine calcium levels as well as an increase in urine creatine levels (FIG. 4).\nAdditional studies in these mice entailed measurement of blood plasma levels of the biomarkers leptin and adiponectin after treatment with setmelanotide (1.25 mg/kg). […] Further, the leptin: adiponectin ration was decreased in setmelanotide treated mice."}},
  "note": "Entries after “also recorded” stand apart in the source; their conditions may differ.",
  "data": [
    {"molecule": "CC(=O)N[C@@H](CCCNC(=N)N)C(=O)N[C@H]1CSSC[C@@H](C(N)=O)NC(=O)[C@H](Cc2c[nH]c3ccccc23)NC(=O)[C@H](CCCNC(=N)N)NC(=O)[C@@H](Cc2ccccc2)NC(=O)[C@H](Cc2cnc[nH]2)NC(=O)[C@@H](C)NC1=O", "note": "[setmelanotide, Ac-Arg-c (Cys-D-Ala-His-D-Phe-Arg-Trp-Cys)-NH2]", "values": [
      {"measurement": "plasma leptin levels", "setting": "[1]", "result": "lowers; also recorded: decrease"},
      {"measurement": "effect on blood pressure", "setting": "[2]", "result": "has not been shown to adversely affect blood pressure"},
      {"measurement": "renal IL-23 mRNA expression", "setting": "[3]", "result": "lowers; also recorded: normalization"},
      {"measurement": "body weight", "setting": "[4]; 1.25 mg/kg daily for one week", "result": "Lowered"},
      {"measurement": "urine calcium levels", "setting": "[4]; 1.25 mg/kg daily for one week", "result": "increase"},
      {"measurement": "urine creatine levels", "setting": "[4]; 1.25 mg/kg daily for one week, FIG. 4", "result": "increase"},
      {"measurement": "blood plasma levels of leptin", "setting": "[4]; 1.25 mg/kg, effect not seen in vehicle and pair-fed mice, FIG. 5A", "result": "decreasing levels"},
      {"measurement": "blood plasma levels of adiponectin", "setting": "[4]; 1.25 mg/kg, effect not seen in vehicle and pair-fed mice, FIG. 5B", "result": "increased levels"},
      {"measurement": "leptin: adiponectin ration", "setting": "[4]; 1.25 mg/kg, effect not seen in vehicle and pair-fed mice, FIG. 5C", "result": "decreased"}
    ]}
  ]
}
